Results taken from publication PMC11997881, “Comprehensive Characterization of Bruton’s Tyrosine Kinase Inhibitor Specificity, Potency, and Biological Effects: Insights into Covalent and Noncovalent Mechanistic Signatures” (ACS Pharmacology & Translational Science, 2025).

Columns and labels:
TEC = biological target: T1, TEC (Homo sapiens, UniProt P42680); assay: scanMAX binding POC, TEC; details: 1 μM
T1 sequence (P42680 1-631): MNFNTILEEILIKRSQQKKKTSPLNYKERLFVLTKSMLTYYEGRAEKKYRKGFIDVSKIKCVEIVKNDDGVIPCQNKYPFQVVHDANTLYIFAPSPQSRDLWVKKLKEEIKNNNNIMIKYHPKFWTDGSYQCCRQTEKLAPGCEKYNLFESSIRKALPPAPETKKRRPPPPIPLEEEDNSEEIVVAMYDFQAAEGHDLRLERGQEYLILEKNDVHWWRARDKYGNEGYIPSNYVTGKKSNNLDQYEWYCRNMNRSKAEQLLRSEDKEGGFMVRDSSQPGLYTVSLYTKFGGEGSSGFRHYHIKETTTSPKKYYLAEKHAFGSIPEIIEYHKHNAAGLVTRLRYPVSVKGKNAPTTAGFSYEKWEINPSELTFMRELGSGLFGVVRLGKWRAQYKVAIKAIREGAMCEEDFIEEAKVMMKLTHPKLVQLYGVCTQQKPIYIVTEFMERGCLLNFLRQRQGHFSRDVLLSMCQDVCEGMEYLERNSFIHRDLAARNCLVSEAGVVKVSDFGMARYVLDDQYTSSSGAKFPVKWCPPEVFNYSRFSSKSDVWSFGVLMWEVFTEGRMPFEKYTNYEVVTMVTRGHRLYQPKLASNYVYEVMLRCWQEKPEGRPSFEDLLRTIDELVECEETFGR
Source text: (§1) Comprehensive Characterization of Bruton’s Tyrosine Kinase Inhibitor Specificity, Potency, and
(§2) Biological Effects: Insights into Covalent and Non-Covalent Mechanistic Signatures
(§3) Antonia C. Darragh1, Andrew M. Hanna1, Justin H. Lipner2, Alastair J. King2, Nicole B. Servant1, Mirza Jahic1*
(§4) *To whom correspondence should be addressed: Mirza Jahic, e-mail address: Mirza.Jahic@discovery.eurofinsus.com
(§5) Supporting Table S1. Comparison of BTK inhibitor specificity to TEC family members. TEC family members are
(§6) Burton’s tyrosine kinase (BTK), tyrosine kinase expressed in hepatocellular carcinoma (TEC), bone marrow-
(§7) expressed kinase (BMX/ETK), and T cell-expressed kinase (TXK/RLK), and interleukin-2-inducible T cell kinase
(§8) A zero POC signifies that the compound

ITK = biological target: T2, ITK (Homo sapiens, UniProt Q08881); assay: scanMAX binding POC, ITK; details: 1 μM
T2 sequence (Q08881 1-620): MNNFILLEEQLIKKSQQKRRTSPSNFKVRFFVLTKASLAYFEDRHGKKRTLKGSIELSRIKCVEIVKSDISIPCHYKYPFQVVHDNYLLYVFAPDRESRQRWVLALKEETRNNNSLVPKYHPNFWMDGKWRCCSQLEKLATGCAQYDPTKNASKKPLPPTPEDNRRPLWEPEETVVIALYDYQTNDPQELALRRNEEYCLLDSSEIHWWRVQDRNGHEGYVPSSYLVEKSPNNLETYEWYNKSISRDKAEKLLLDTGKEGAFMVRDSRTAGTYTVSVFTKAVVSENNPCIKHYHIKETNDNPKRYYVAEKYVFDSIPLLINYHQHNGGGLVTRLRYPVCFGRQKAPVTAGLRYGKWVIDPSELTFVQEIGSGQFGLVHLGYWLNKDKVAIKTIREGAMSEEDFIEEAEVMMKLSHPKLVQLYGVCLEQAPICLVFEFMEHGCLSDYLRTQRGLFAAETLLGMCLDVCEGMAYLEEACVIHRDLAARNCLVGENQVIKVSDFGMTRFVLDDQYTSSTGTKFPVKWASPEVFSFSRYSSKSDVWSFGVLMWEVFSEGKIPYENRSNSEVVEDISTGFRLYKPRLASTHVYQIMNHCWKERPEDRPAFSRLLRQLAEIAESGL
Source text: as §1, §2, §3, §4, §5, §6, §7, §8

BLK = BLK (Homo sapiens, UniProt P51451); assay: scanMAX binding POC, BLK; details: 1 μM
Chain of BLK (P51451 whole entry): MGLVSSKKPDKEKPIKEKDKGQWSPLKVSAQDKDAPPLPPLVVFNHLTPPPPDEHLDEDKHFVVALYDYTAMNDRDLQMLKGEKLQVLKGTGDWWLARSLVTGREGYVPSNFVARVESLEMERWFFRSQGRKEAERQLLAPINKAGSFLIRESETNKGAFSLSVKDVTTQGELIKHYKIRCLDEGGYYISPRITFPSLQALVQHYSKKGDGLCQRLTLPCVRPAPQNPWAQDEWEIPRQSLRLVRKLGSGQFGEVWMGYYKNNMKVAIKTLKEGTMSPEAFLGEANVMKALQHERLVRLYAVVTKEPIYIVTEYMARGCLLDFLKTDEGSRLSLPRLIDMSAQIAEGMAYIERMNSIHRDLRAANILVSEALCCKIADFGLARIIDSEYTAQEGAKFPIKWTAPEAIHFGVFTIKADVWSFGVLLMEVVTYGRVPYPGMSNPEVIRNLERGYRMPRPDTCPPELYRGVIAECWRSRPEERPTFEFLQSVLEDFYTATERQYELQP

EGFR = EGFR (Homo sapiens, UniProt P00533); assay: scanMAX binding POC, EGFR; details: 1 μM
Chain of EGFR (P00533 25-1210): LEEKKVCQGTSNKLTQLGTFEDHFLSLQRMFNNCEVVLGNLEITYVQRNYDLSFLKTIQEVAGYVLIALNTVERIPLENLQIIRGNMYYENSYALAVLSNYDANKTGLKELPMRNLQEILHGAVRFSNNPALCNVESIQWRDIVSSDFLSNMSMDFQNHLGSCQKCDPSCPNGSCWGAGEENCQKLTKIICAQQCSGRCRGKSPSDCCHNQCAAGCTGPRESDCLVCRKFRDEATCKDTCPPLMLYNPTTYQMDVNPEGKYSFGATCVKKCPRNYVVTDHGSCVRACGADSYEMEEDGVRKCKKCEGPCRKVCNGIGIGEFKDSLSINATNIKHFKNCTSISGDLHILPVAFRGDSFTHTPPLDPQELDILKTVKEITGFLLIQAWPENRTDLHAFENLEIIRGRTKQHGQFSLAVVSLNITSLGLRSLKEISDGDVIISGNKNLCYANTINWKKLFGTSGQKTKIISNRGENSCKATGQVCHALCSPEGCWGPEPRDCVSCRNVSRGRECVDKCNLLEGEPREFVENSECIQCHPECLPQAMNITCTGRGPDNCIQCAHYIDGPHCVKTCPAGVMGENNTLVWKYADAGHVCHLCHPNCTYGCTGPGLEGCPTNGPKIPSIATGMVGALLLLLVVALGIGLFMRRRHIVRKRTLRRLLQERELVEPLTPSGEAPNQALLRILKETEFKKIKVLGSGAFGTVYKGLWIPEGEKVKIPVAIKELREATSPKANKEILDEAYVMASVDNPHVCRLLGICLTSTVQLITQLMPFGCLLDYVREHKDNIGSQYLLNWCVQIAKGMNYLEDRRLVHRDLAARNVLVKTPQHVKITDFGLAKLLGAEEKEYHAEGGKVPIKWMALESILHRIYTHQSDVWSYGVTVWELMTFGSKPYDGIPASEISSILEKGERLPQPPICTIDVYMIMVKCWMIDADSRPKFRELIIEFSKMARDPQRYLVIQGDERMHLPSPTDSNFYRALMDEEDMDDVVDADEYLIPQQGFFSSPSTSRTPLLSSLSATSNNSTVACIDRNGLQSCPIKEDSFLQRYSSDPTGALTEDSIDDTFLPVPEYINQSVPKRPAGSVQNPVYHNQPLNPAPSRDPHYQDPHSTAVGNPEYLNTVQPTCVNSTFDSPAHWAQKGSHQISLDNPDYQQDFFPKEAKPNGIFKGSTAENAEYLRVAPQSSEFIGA

ERBB2 = ERBB2 (Homo sapiens, UniProt P04626); assay: scanMAX binding POC, ERBB2; details: 1 μM
ERBB3 = ERBB3 (Homo sapiens, UniProt P21860); assay: scanMAX binding POC, ERBB3; details: 1 μM
Chain of ERBB3 (P21860 20-1342): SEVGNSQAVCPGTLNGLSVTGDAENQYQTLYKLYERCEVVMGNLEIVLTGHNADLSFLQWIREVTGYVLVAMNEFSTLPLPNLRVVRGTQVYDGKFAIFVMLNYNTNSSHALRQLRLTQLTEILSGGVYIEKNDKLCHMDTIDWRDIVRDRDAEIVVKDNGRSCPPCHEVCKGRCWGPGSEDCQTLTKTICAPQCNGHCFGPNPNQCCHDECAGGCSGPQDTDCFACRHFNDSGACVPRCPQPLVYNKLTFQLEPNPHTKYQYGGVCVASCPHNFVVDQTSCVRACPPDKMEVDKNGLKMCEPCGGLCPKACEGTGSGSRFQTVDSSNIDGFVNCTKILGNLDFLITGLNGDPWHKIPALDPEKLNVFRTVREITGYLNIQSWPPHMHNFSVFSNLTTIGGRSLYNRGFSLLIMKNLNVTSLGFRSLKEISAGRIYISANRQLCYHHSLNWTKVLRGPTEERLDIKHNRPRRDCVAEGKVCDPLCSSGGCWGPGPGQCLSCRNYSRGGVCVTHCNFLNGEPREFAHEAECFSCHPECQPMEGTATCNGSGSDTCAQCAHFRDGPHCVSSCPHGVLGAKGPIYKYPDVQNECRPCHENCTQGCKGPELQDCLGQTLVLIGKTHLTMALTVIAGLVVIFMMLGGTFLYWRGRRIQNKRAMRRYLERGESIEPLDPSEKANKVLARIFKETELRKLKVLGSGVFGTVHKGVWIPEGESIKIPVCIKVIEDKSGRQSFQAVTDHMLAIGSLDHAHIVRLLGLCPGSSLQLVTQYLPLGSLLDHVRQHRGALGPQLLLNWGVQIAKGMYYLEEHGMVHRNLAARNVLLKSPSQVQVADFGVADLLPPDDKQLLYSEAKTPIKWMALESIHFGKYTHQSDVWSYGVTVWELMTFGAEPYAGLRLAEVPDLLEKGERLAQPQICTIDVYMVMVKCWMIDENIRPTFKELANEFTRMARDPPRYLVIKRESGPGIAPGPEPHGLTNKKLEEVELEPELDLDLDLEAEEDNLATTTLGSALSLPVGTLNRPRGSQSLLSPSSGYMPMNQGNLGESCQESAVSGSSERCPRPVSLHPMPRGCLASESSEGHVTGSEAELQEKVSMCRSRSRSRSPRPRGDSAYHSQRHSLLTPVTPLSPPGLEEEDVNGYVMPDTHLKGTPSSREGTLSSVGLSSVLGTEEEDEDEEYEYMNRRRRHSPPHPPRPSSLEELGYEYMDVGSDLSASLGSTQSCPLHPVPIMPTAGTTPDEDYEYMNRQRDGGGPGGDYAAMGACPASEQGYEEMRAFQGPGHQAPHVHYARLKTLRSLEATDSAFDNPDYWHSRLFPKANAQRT

ERBB4 = ERBB4 (Homo sapiens, UniProt Q15303); assay: scanMAX binding POC, ERBB4; details: 1 μM
Chain of ERBB4 (Q15303 26-1308): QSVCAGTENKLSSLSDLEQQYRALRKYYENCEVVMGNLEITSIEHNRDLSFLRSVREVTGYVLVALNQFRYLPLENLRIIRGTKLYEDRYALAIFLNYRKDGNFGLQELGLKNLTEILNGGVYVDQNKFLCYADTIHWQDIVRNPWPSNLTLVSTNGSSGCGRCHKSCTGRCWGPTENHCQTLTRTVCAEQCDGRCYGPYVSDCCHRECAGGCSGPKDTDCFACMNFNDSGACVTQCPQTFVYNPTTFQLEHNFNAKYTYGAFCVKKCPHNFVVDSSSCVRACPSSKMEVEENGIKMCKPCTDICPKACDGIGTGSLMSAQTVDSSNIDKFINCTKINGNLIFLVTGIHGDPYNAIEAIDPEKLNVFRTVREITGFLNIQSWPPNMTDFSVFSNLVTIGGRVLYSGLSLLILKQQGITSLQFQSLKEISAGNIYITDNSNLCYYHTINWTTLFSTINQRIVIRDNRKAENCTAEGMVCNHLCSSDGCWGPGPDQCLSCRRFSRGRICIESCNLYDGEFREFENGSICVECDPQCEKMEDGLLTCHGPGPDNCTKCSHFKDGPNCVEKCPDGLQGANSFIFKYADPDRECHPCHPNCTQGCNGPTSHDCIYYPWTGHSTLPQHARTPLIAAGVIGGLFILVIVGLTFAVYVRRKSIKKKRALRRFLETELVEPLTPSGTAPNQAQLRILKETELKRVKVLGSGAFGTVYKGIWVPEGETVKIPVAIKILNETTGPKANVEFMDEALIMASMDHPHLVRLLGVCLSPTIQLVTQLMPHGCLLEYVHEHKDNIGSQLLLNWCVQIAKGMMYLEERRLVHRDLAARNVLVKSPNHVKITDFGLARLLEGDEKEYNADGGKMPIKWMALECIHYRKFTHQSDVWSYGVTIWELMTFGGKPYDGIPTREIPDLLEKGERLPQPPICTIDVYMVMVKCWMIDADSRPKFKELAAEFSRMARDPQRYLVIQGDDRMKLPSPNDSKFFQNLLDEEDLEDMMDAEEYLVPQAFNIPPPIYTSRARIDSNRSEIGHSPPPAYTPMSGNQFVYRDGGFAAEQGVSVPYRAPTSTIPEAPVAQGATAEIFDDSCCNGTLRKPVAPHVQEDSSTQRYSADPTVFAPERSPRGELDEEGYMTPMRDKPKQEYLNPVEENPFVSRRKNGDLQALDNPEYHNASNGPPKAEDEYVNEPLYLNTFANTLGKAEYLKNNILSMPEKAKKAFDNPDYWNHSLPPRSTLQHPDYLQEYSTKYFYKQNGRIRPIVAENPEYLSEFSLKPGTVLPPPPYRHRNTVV

[1] = biological target: T3, JAK3 (JH1 catalytic domain) (Homo sapiens, UniProt P52333); assay: scanMAX binding POC, JAK3; details: 1 μM
T3 construct: The JAK3 POC is for its JH1 catalytic domain
T3 sequence (P52333 822-1111 limits assumed): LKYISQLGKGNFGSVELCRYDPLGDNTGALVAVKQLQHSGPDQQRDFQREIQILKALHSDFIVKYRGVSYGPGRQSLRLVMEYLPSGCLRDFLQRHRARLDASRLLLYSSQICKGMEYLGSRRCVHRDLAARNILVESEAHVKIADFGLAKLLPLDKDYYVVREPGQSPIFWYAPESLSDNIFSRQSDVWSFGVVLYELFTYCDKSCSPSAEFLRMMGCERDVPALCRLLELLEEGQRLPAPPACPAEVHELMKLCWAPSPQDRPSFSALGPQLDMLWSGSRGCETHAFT

MKK7 = biological target: T4, MKK7 (Homo sapiens, UniProt O14733); assay: scanMAX binding POC, MKK7; details: 1 μM
T4 sequence (O14733 1-419): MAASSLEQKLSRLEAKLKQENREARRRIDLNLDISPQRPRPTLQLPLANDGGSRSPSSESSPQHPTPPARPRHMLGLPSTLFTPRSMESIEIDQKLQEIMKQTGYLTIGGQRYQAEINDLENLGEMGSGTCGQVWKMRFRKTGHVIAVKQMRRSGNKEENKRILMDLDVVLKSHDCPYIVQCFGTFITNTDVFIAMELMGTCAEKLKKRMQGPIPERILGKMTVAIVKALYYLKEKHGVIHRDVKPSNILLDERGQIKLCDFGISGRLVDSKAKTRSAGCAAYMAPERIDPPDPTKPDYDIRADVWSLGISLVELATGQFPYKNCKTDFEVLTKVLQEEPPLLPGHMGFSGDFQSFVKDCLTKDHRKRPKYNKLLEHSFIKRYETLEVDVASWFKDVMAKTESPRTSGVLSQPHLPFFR

BTK = details: cited from earlier work
JNK1 (MAPK8) = JNK1 (MAPK8) (Homo sapiens, UniProt P45983); assay: scanMAX binding POC, JNK1; details: 1 μM
Chain of JNK1 (MAPK8) (P45983 whole entry): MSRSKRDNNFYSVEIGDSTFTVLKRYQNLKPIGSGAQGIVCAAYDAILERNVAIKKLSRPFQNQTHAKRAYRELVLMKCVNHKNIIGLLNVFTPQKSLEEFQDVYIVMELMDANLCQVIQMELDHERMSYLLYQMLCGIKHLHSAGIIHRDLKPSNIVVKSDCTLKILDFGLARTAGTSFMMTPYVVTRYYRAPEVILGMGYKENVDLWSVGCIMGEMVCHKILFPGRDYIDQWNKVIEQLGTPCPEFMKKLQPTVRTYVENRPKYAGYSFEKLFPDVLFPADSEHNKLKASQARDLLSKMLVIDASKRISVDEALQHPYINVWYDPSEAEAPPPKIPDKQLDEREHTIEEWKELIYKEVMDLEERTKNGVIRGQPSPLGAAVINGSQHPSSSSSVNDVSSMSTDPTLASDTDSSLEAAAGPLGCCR
Protocol: (§9) The compounds were diluted directly into the assays such that the final concentration of DMSO was 0.9%. No enzyme purification steps were performed on the protein extracts before adding them to the reaction mixture, and the protein extracts were diluted 10,000-fold in the final reaction mixture (the final DNA-tagged enzyme concentration was less than 0.1 nM). Binding assay mixtures were incubated at 25 °C with shaking for 1 h. […] The concentration of wild-type or mutant BTK in the eluates was then determined using quantitative PCR. […] Each assay’s affinity ligand concentration on the magnetic beads has been optimized to ensure that the true thermodynamic Kd values for competitor molecules were measured, as described in detail previously99.
(§10) Comparison of BTK inhibitor specificity to c-Jun N-terminal kinases (JNK1-3/MAPKP8-10).
(§11) a The percent of control (POC) is the percent of kinase that was competed off its control ligand relative to the positive and negative controls at the screening concentration56. A zero POC signifies that the compound

JNK2 (MAPK9) = JNK2 (MAPK9) (Homo sapiens, UniProt P45984); assay: scanMAX binding POC, JNK2; details: 1 μM
Protocol: as §9, §10, §11

JNK3 (MAPK10) = JNK3 (MAPK10) (Homo sapiens, UniProt P53779); assay: scanMAX binding POC, JNK3; details: 1 μM
Protocol: as §9, §10, §11

TEC binding POC (TEC)	ITK binding POC (ITK)	BLK binding POC (BLK)	EGFR binding POC (EGFR)	ERBB2 binding POC (ERBB2)	ERBB3 binding POC (ERBB3)	ERBB4 binding POC (ERBB4)	JAK3 binding POC [1]	MKK7 binding POC (MKK7)	MKK7 binding POC (MKK7; listed as elsubrutinib)	JNK1 (MAPK8) POC (JNK1 (MAPK8))	JNK2 (MAPK9) POC (JNK2 (MAPK9))	JNK3 (MAPK10) POC (JNK3 (MAPK10))	Structure (SMILES)	IC50 (BTK) [nM]
18% of control	94% of control	15% of control	90% of control	73% of control	74% of control	91% of control	0.15% of control	24% of control	weak hit	96% of control	91% of control	94% of control	C=CC(=O)N1CCC[C@@H](c2ccc(C(N)=O)c3[nH]ccc23)C1 [Elsubrutinib]	180
17% of control	25% of control	60% of control	95% of control	97% of control	78% of control	100% of control	95% of control	89% of control		100% of control	100% of control	100% of control	C[C@H]1CN(C2COC2)CCN1c1ccc(Nc2cc(-c3ccnc(N4CCn5c(cc6c5CC(C)(C)C6)C4=O)c3CO)cn(C)c2=O)nc1 [Fenebrutinib]	2.3
7.3% of control	86% of control	0.3% of control	0% of control	0% of control	0.9% of control	0.35% of control	86% of control	39% of control		39% of control	100% of control	100% of control	O=C(c1ccc(Oc2ccccc2)cc1Cl)c1c[nH]c2ncnc(N[C@@H]3CC[C@@H](CO)OC3)c12 [Nemtabrutinib]	0.85
12% of control	100% of control	69% of control	0.5% of control	5.9% of control	97% of control	2% of control	77% of control	91% of control		96% of control	94% of control	100% of control	COc1ccc(F)cc1C(=O)NCc1ccc(-c2nn([C@@H](C)C(F)(F)F)c(N)c2C(N)=O)cc1 [Pirtobrutinib]	3.2
8.5% of control	1% of control	0.85% of control	1.2% of control	8.7% of control	97% of control	0.15% of control	0.45% of control	100% of control		32% of control	100% of control	100% of control	C=CC(=O)Nc1cccc(Oc2nc(Nc3ccc(N4CCN(C)CC4)cc3)nc3ccoc23)c1 [Poseltinib]	3
8.1% of control	51% of control	22% of control	49% of control	57% of control	83% of control	17% of control	0% of control	79% of control		4.8% of control	8.4% of control	3.9% of control	C=CC(=O)Nc1cccc(Nc2nc(Nc3ccc(OCCOC)cc3)ncc2F)c1 [Spebrutinib]	[…]
